Reference: PMC3086806, “Mining a Cathepsin Inhibitor Library for New Antiparasitic Drug Leads” (PLoS Neglected Tropical Diseases, 2011)
Where two headings read alike, the source gives them in different places.

Experiments:
falcipain-3 = biological target: T1, falcipain-3 (Plasmodium falciparum, UniProt Q8IIL0); assay: Falcipain-3 protease inhibition assay (Z-Leu-Arg-AMC); assay type: biochemical
T1 construct: made in house
T1 sequence (Q8IIL0 243-492): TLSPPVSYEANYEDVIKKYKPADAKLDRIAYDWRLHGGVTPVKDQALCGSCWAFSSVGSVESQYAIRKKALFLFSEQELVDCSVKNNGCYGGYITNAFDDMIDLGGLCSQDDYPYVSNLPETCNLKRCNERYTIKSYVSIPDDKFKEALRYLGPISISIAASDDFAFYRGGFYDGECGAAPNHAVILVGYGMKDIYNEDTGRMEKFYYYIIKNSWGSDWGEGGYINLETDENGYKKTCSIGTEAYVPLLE
Description: (§1) Recombinant cruzain, rhodesain, TbCatB, falcipain-2 and falcipain-3 were expressed as described previously, [39], [40], [41], [42]. Inhibitor stock solutions were prepared in DMSO and screened at 0.1 µM for cruzain and rhodesain, 1 µM for TbCatB and 50 nM for falcipain-3 (0.5% DMSO in assay). […] Protease inhibition assays for cruzain and rhodesain were carried out in 96 well plate format as described previously. Cruzain (4 nM), rhodesain (4 nM) or TbCatB (258 nM) was incubated with test compound in 100 mM sodium acetate, pH 5.5, containing 5 mM DTT and 0.01% Triton X-100 (buffer A), for 5 min at room temperature (the higher concentration of TbCatB was required due to its lower intrinsic activity against the fluorogenic substrate). Then buffer A containing Z-Phe-Arg-AMC (Bachem) was added to enzyme-compound mixture to give 10 µM substrate in a final assay volume of 200 µL. The rate of free AMC release was measured at excitation and emission wavelengths of 355 and 460 nm, respectively, with a microtiter plate spectrofluorimeter (SpectraMax M5, Molecular Devices) for 3 min. Percentage inhibition of test compound was calculated relative to the DMSO control (0% inhibition control). IC50 values were determined with Prism 4 software (GraphPad, San Diego, CA) using sigmoidal dose-response variable slope model.
(§2) Protease inhibition assays for falcipain-2 and falcipain-3 were carried out in 96 well plate format as described previously, [43] with modification for end-point readout. Falcipain-2 (21 nM) or falcipain-3 (78 nM) was incubated with test compound for 10 min at room temperature in 200 mM sodium acetate, pH 6, 10 mM DTT and 3.6% glycerol and 0.01% Triton X-100 (buffer B). Then buffer B containing Z-Leu-Arg-AMC (Bachem) was added to the enzyme-compound mixture to give 25 µM substrate in a final assay volume of 200 µL. After 15 min, 50 µL of 5 M acetic acid was added to each well to stop the reaction. End-point fluorescence was read in a spectrofluorimeter as above. The 0% inhibition control wells contained DMSO while 100% inhibition control wells contained 50 µM E-64 (Sigma). Percentage inhibition of test compound was calculated relative to the controls and IC50 curve fitting was performed with Prism 4 software as above.

human cathepsin L = biological target: human cathepsin L; parameters: method as in data provided by Celera Genomics; conditions: historical data; ref data provided by Celera Genomics; read-out: Ki catL; cited from earlier work
[1] = test system: W2-strain P. falciparum parasites; assay: P. falciparum growth inhibition assay; assay type: cell-based, Plasmodium falciparum; conditions: for GI50: Plasmodium falciparum, read-out: GI50 P. falc. W2
Description: The growth inhibition assay for P. falciparum was conducted as described previously. W2-strain P. falciparum parasites (1% parasitemia, 2% hematocrit) were cultured at 37°C in human red blood cells under the atmosphere of 3% O2, 5% CO2 balance N2 in 0.2 mL of per well in medium RPMI-1640 supplemented with 10% human serum in duplicate 96-well flat bottom culture plates in the presence of inhibitors. Tested compounds were serially diluted 1∶3 in the range 10,000 – 4.6 nM, with maximum DMSO concentration of 0.1%. Following 48 hours of incubation, the medium was removed and the cells were fixed in 2% formaldehyde in PBS. Parasite growth was evaluated by flow cytometry on a FACsort (Becton Dickinson) equipped with AMS-1 loader (Cytek Development) after staining with 1 nM DNA dye YOYO-1(Molecular Probes) in 100 mM NH4Cl, 0.8% NaCl. Parasitemias were determined from dot plots (forward scatter vs. fluorescence) using […] software (Becton Dickinson). IC50 values for growth inhibition were determined from plots of percentage control parasitemia over inhibitor concentration using GraphPad Prism software.

falcipain-2 = biological target: T2, falcipain-2 (Plasmodium falciparum, UniProt Q8I6U4); assay: Falcipain-2 protease inhibition assay (Z-Leu-Arg-AMC); assay type: biochemical
T2 construct: made in house
T2 sequence (Q8I6U4 244-484): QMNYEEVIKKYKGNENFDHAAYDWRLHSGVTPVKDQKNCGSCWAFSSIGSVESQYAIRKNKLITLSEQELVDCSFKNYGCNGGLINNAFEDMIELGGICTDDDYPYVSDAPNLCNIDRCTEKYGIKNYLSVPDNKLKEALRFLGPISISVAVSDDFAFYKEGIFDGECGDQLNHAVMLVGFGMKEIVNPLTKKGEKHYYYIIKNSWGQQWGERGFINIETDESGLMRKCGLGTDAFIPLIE
Description: as §1, §2

human cathepsin B = biological target: human cathepsin B; parameters: method as in data provided by Celera Genomics; conditions: historical data; ref data provided by Celera Genomics; read-out: Ki catB; cited from earlier work
[2] = Jurkat cell cytotoxicity assay; assay type: cell-based; conditions: human, Jurkat cells (clone E6-1), read-out: Cytotoxicity (% inhibition at 10 µM) Jurkat cells
Description: (§3) Jurkat cells (clone E6-1) were grown in complete RPMI-1640 medium containing 10% FBS, 50 U/mL penicillin and 50 µg/mL streptomycin (Invitrogen) at 37°C under a humidified atmosphere and 5% CO2. For cytotoxicity testing, cells were diluted to 1×10^5 per ml in complete RPMI-1640 medium. Test compound stocks were prepared in 100% DMSO and screened at 10 µM against cells (1×10^4 cells per well) in sterile Greiner 96-well flat white opaque culture plates (0.5% final DMSO concentration). The 0% inhibition control wells contained 0.5% DMSO while 100% inhibition control wells contained 40 µM staurosporine. After compound addition, plates were incubated for 40 hr at 37°C. At the end of the incubation period, 50 µL of CellTiter-Glo™ reagent (Promega Inc., Madison, WI, USA) was added to each well and plates were placed on an orbital shaker at room temperature for 2 min to induce lysis. After a further 10 min incubation without shaking to stabilize the signal, the ATP-bioluminescence of each well was determined using an Analyst HT plate reader (Molecular Devices, Sunnyvale, CA, USA). Calculations of percentage inhibition and IC50 were performed similar to those in the T. brucei brucei assay.

cruzain = biological target: T3, cruzain (Trypanosoma cruzi, UniProt P25779); assay: Cruzain protease inhibition assay (Z-Phe-Arg-AMC); assay type: biochemical
T3 construct: made in house
T3 sequence (P25779 123-467): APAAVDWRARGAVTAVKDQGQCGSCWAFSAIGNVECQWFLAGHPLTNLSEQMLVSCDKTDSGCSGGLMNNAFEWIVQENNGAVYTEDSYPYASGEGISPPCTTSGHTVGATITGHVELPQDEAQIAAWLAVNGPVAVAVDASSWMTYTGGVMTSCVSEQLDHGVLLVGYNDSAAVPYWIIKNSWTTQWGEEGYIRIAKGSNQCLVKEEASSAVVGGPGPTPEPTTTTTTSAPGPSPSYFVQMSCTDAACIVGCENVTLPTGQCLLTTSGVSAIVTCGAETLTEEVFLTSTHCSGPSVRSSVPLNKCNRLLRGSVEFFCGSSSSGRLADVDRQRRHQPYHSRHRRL
Description: as §1

[3] = test system: intracellular T. cruzi (CA-I/72) in BESM cells; assay: T. cruzi amastigote growth inhibition assay; assay type: cell-based; conditions: Trypanosoma cruzi; infected BESM cells, 72 hours
Description: (§4) The growth inhibition assay for the intracellular T. cruzi was conducted in 96-well plate format as described previously. Briefly, bovine embryo skeletal muscle (BESM) cells (2×10^3/well), seeded overnight, were infected with CA-I/72 T. cruzi trypomastigotes (2×10^3/well). Sixteen hours post-infection, test compounds (serial dilution concentrations starting from 20 µM) were added and assay plates were incubated for an additional 72 hours at 37°C with 5% CO2. Cells were then washed once in PBS, fixed with 4% paraformaldehyde and stained with DNA fluorescent dye DAPI (4′ 6-diamidino-2-phenylindole). The assay plates were then imaged in the IN Cell Analyzer 2000 (GE Healthcare) with the excitation and emission filters set of 350 nm and 460 nm, respectively, to detect DAPI signals. The feature extraction module in IN Cell Developer Toolbox 1.7 software was used to count host nuclei and parasite kinetoplasts by size difference.

rhodesain = biological target: T4, rhodesain (Trypanosoma brucei rhodesiense, UniProt Q95PM0); assay: Rhodesain protease inhibition assay (Z-Phe-Arg-AMC); assay type: biochemical
T4 construct: made in house
T4 sequence (Q95PM0 entry or part of it): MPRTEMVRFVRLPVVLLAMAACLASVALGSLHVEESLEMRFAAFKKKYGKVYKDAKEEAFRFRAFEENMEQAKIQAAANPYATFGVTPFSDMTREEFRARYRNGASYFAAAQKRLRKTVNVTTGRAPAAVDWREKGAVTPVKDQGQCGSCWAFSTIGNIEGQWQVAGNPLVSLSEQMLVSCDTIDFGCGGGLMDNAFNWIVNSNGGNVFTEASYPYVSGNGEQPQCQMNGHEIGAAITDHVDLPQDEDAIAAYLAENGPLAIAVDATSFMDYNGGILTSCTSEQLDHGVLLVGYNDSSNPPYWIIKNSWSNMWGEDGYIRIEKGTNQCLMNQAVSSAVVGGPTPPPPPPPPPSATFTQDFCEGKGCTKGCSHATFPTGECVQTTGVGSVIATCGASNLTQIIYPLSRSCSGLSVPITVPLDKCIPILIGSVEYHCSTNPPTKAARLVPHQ
Description: as §1

[4] = test system: T. brucei brucei clone 427-221a bloodstream forms; assay: T. brucei brucei growth inhibition assay; assay type: cell-based; conditions: Trypanosoma brucei; 40 hours
Description: The growth inhibition assay for T. brucei brucei was conducted as described previously. Bloodstream forms of the monomorphic T. brucei brucei clone 427-221a were grown in complete HMI-9 medium containing 10% FBS, 10% Serum Plus medium (Sigma Inc. St. Louis Mo. USA), 50 U/mL penicillin and 50 µg/mL streptomycin (Invitrogen) at 37°C under a humidified atmosphere and 5% CO2. […] 5 µL of each dilution was added to 95 µL of diluted parasites (1×10^4 cells per well) in sterile Greiner 96-well flat white opaque culture plates such that the final DMSO concentration was 0.5%. The 0% inhibition control wells contained 0.5% DMSO while 100% inhibition control wells contained 50 µM thimerosal (Sigma). After compound addition, plates were incubated for 40 hours at 37°C. At the end of the incubation period, 50 µL of CellTiter-Glo™ reagent (Promega Inc., Madison, WI, USA) was added to each well and plates were placed on an orbital shaker at room temperature for 2 min to induce lysis. After an additional 10 min incubation without shaking to stabilize the signal, the ATP-bioluminescence of each well was determined using an Analyst HT plate reader (Molecular Devices, Sunnyvale, CA, USA). Raw values were converted to log10 and percentage inhibition calculated relative to the controls. IC50 curve fittings were performed with Prism 4 software as above.

TbCatB = biological target: T5, TbCatB (Trypanosoma brucei, UniProt Q6R7Z5); assay: TbCatB protease inhibition assay (Z-Phe-Arg-AMC); assay type: biochemical
T5 construct: made in house
T5 sequence (Q6R7Z5 23-340): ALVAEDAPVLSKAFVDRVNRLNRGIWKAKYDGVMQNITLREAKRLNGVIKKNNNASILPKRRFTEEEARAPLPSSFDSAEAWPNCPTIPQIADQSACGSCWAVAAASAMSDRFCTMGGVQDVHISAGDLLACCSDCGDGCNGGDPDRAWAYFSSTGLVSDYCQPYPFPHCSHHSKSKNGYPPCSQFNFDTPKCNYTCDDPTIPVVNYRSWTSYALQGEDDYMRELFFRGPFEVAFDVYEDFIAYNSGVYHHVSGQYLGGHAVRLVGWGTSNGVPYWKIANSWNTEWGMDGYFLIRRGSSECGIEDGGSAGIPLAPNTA
Description: as §1

[5] = test system: bovine embryo skeletal muscle (BESM) cells; assay: Toxicity toward host BESM cells in the T. cruzi assay; assay type: cell-based; conditions: 20 µM
Description: as §4
All falcipain-3 inhibitors were also tested against falcipain-2. […] The entire library was examined for cytotoxicity to a mammalian cell line (Jurkat) at a concentration of 10 µM, and those compounds studied in the T. cruzi assay were also evaluated for toxicity (at 20 µM) toward the host BESM cells used in that assay. […]

[6] = test system: Jurkat cells (clone E6-1); assay: Jurkat cell cytotoxicity assay; assay type: cell-based; conditions: 40 hr
Description: as §3

Row | IC50 (falcipain-3; read-out: IC50 falcipain-3) [nM] | IC50 (falcipain-2) [nM] | SMILES | Ki (human cathepsin L) [nM] | GI50 ([1]; cultured W2 strain, 48 hours) [nM] | GI50 P. falc. W2 ([1]; cultured W2 strain, 48 hours) | Ki (human cathepsin B) [nM] | cytotoxicity at 40 h, 10 µM [2] [%] | IC50 (cruzain) [nM] | GI50 [3] [nM] | IC50 (rhodesain) [nM] | GI50 [4] [nM] | IC50 (TbCatB) [nM] | IC50 (falcipain-3) [nM] | GI50 ([1]; W2, 48 h) [nM] | Inhibition of growth of BESM cells [5] [%] | Cytotoxicity (% inhibition at 10 µM) Jurkat cells [6]
1 | 2.4 | 2 | CC(C)CC(NC(c1ccc(-c2ccc(S(C)(=O)=O)cc2)cc1)c1nccs1)C(=O)NC1(C#N)CC1 (stereo not drawn) [Compound 21] | 32 | 870 | sub-micromolar | 6700 | < 5 |  |  |  |  |  |  |  |  | 
2 |  |  | CCC[C@H](NC(=O)C1(NC(=O)c2ccc(-c3csc(N4CCN(C)CC4)n3)cc2)CCCCC1)C(=O)c1nc2ccccc2o1 [Compound 23a] | 1100 |  |  | 320 | < 5 | 30 | 19000 | 3900 | 4200 | 70 |  |  |  | 
3 | 40 | 7.6 | CC(C)CC(NC(=O)N1CCOCC1)C(=O)NC(C=CS(=O)(=O)c1ccccc1)CCc1ccc(O)cc1 (stereo not drawn) [Compound 18a] | 3 | 20 |  | 440 | < 5 |  |  |  |  |  |  |  |  | 
4 | 11 | 7.5 | N#CC1(NC(=O)C(CC2CCCCC2)NC(=O)c2cccc(-c3cccc(S(N)(=O)=O)c3)c2)CCS(=O)(=O)CC1 (stereo not drawn) [Compound 20] |  | 170 | sub-micromolar |  | < 5 |  |  |  |  |  |  |  |  | 
5 | 17 | 66 | CCCCC(NC(=O)C(CC(C)C)NC(C)=O)C(=O)c1nc2ccccc2o1 (stereo not drawn) [Compound 19c] | 610 | 4800 |  | 920 | < 5 |  |  |  |  |  |  |  |  | 
6 |  |  | CC(C)CC(NC(=O)c1ccc(-c2csc(Nc3ccncc3)n2)cc1)C(=O)NCCN(CC(C)C)CC(C)C (stereo not drawn) [Compound 22] | 71 |  |  | 4500 | < 5 | 1600 | 800 | 640 | 200 |  |  |  | ~90 | did not inhibit the growth
7 |  |  | CCCC[C@H](NC(=O)C1(NC(=O)c2ccc(-c3csc(N4CCN(C)CC4)n3)cc2)CCCCC1)C(=O)c1nc2ccccc2o1 [Compound 23b] | 280 |  |  | 610 | < 5 | 380 | 7700 | 5000 | 10500 | 1 |  |  |  | 

Row | SMILES | IC50 (falcipain-3; read-out: IC50 falcipain-3) [nM] | IC50 (falcipain-2) [nM] | Ki (human cathepsin L) [nM] | GI50 ([1]; cultured W2 strain, 48 hours) [nM] | GI50 P. falc. W2 ([1]; cultured W2 strain, 48 hours) | Ki (human cathepsin B) [nM] | cytotoxicity at 40 h, 10 µM [2] [%] | IC50 (cruzain) [nM] | GI50 [3] [nM] | IC50 (rhodesain) [nM] | GI50 [4] [nM] | IC50 (TbCatB) [nM] | IC50 (falcipain-3) [nM] | GI50 ([1]; W2, 48 h) [nM] | Inhibition of growth of BESM cells [5] [%] | Cytotoxicity (% inhibition at 10 µM) Jurkat cells [6]
8 | CC(C)CC(NC(=O)N1CCOCC1)C(=O)NC(C=CS(=O)(=O)c1ccccc1)CCc1ccccc1 (stereo not drawn) [Compound 18b] |  | 3.6 |  |  |  | 210 | < 5 |  |  |  |  |  | 29 | 40 |  | 
